This note sets out measurements from patent US7981883B2, “Substituted spiro-compounds and the use thereof for producing medicaments” (Gruenenthal GmbH, priority 2005, dated 2011).

A word on the inhibition: it is the relative decrease from the control value, in per cent.

One assay concerns the target T1, VR1 (rat) (Rattus norvegicus, UniProt O35433).
T1 construct: from tissue; host or cells: primary cells dissociated from rat dorsal root ganglia
The experiment in a line: Functional FLIPR Ca2+ inflow assay on rat-species vanilloid receptor 1 in rat dorsal root ganglia cells. In kind it is cell-based. Particulars: test compound 10 μM; for inhibition at 10 µM / VR1 (rat) (% inhibition compared to 10 μM CP): then 100 nM capsaicin after 5 min, relative to maximum inhibition with 10 μM capsaicin; for inhibition at 10 µM: read-out: VR1 (rat) (% inhibition compared to 10 μM CP); for activation at 10 µM / VR1 (rat) (% stimulation compared to 10 μM CP): Ca2+ signal relative to 10 μM capsaicin (CP); for activation at 10 µM: read-out: VR1 (rat) (% stimulation compared to 10 μM CP). The text has this: I. Functional Testing Carried Out on the Vanilloid Receptor 1 (VR1/TRPV1 Receptor)
The agonistic or antagonistic effect of the substances to be tested can be determined on the rat-species vanilloid receptor 1 (VR1/TRPV1) using the following assay. According to this assay, the Ca^2+ inflow is quantified through the receptor channel using a Ca^2+-sensitive dye (type Fluo-4, Molecular Probes Europe BV, Leiden, Netherlands) in a fluorescent imaging plate reader (FLIPR, Molecular Devices, Sunnyvale, USA).
Complete medium: 50 mL HAMS F12 nutrient mixture (Gibco Invitrogen GmbH, Karlsruhe, Germany) with
10% by volume of FCS (foetal calf serum, Gibco Invitrogen GmbH, Karlsruhe, Germany, […]);
2 mM L-glutamine (Sigma, Munich, Germany);
1% by weight of AA solution (antibiotic/antimyotic solution, PAA, Pasching, Austria) and 25 ng/ml NGF medium (2.5 S, Gibco Invitrogen GmbH, Karlsruhe, Germany)
Cell culture plate: Poly-D-lysine-coated, black 96 well plates having a clear base (96 well black/clear plate, BD Biosciences, Heidelberg, Germany) were additionally coated with laminin (Gibco Invitrogen GmbH, Karlsruhe, Germany), the laminin being diluted with PBS (Ca—Mg-free PBS, Gibco Invitrogen GmbH, Karlsruhe, Germany) to a concentration of 100 μg/mL. Aliquots having a laminin concentration of 100 μg/mL were removed and stored at −20° C. The aliquots were diluted with PBS in a ratio of 1:10 to 10 μg/mL laminin and in each case 50 μL of the solution were pipetted into a recess in the cell culture plate. The cell culture plates were incubated for at least two hours at 37° C., the excess solution was removed by suction-filtration and the recesses were each washed twice with PBS. The coated cell culture plates were stored with excess PBS which was not removed until just before the feeding of the cells.
The vertebral column was removed from decapitated rats and placed immediately into cold HBSS buffer (Hank's buffered saline solution, Gibco Invitrogen GmbH, Karlsruhe, Germany), i.e. buffer located in an ice bath, mixed with 1% by volume (percent by volume) of an AA solution (antibiotic/antimyotic solution, PAA, Pasching, Austria). The vertebral column was cut longitudinally and removed together with fasciae from the vertebral canal. Subsequently, the dorsal root ganglia (DRG) were removed and again stored in cold HBSS buffer mixed with 1% by volume of an AA solution. The DRG, from which all blood remnants and spinal nerves had been removed, were transferred in each case to 500 μL of cold type 2 collagenase (PAA, Pasching, Austria) and incubated for 35 minutes at 37° C. After the addition of 2.5% by volume of trypsin (PAA, Pasching, Austria), incubation was continued for 10 minutes at 37° C. After complete incubation, the enzyme solution was carefully pipetted off and 500 μL of complete medium were added to each of the remaining DRG. The DRG were in each case suspended several times, drawn through cannulae No. 1, No. 12 and No. 16 using a syringe and transferred to a 50 mL Falcon tube which was filled up to 15 mL with complete medium. The contents of each Falcon tube was in each case filtered through a 70 μm Falcon filter element and centrifuged for 10 minutes at 1,200 rpm and room temperature. The resulting pellet was in each case taken up in 250 μL of complete medium and the number of cells determined.
The number of cells in the suspension was set to 3×10^5 per mL and 150 μL of this suspension were in each case introduced into a recess in the cell culture plates coated as described hereinbefore. In the incubator the plates were left for two to three days at 37° C., 5% by volume of CO2 and 95% relative humidity. […]

The next assay concerns the target T2, VR1 (human) (Homo sapiens, UniProt Q8NER1).
T2 construct: expressed in transfected cells; host or cells: CHO K1 cells (ECACC)
The experiment in a line: Functional FLIPR Ca2+ inflow assay on VR1 (human), CHO K1 cells stably transfected with the VR1 gene. In kind it is cell-based. The conditions noted are these: test compound 10 μM; for inhibition at 10 µM / activation at 10 µM: CHO-K1; for inhibition at 10 µM / VR1 (human) (% inhibition compared to 10 μM CP): then 100 nM capsaicin after 5 min, relative to maximum inhibition with 10 μM capsaicin; for inhibition at 10 µM: read-out: VR1 (human) (% inhibition compared to 10 μM CP); for activation at 10 µM / VR1 (human) (% stimulation compared to 10 μM CP): Ca2+ signal relative to 10 μM capsaicin (CP); for activation at 10 µM: read-out: VR1 (human) (% stimulation compared to 10 μM CP). The text has this:
II. Functional Testing Carried Out on the Vanilloid Receptor (VR1)
The agonistic or antagonistic effect of the substances to be tested can also be determined on the vanilloid receptor (VR1) using the following assay. According to this assay, the Ca^2+ inflow is quantified through the channel using a Ca^2+-sensitive dye (type Fluo-4, Molecular Probes Europe BV, Leiden, Netherlands) in a fluorescent imaging plate reader (FLIPR, Molecular Devices, Sunnyvale, USA).
Chinese hamster ovary cells (CHO K1 cells, European Collection of Cell Cultures (ECACC) United Kingdom) were stably transfected with the VR1 gene. For functional testing, these cells were plated out on poly-D-lysine-coated black 96 well plates having a clear base (BD Biosciences, Heidelberg, Germany) at a density of 25,000 cells/well. The cells were incubated overnight at 37° C. and 5% CO2 in a culture medium (Ham's F12 nutrient mixture, 10% by volume of FCS (foetal calf serum), 18 μg/ml L-proline). The next day the cells were incubated with Fluo-4 (Fluo-4 2 μM, 0.01% by volume of Pluronic F127, Molecular Probes in HBSS (Hank's buffered saline solution), Gibco Invitrogen GmbH, Karlsruhe, Germany) for 30 minutes at 37° C. Subsequently, the plates were washed three times with HBSS buffer and after further incubation for 15 minutes at room temperature used for Ca^2+ measurement in a FLIPR assay. The Ca^2+-dependent fluorescence was measured before and after the addition of the substances to be tested (λex wavelength=488 nm, λem=540 nm). Quantification was carried out by measuring the highest fluorescence intensity (FC, Fluorescence Counts) over time.
The FLIPR protocol consists of 2 substance additions. First the compounds to be tested (10 μM) were pipetted onto the cells and the Ca^2+ inflow was compared with the control (capsaicin 10 μM) (% activation based on the Ca^2+ signal after the addition of 10 μM capsaicin). After 5 minutes' incubation, 100 nM of capsaicin were administered and the Ca^2+ inflow was also determined.
Desensitising agonists and antagonists led to suppression of the Ca^2+ inflow. The % inhibition was calculated compared to the maximum achievable inhibition with 10 μM of capsaicin.

T1 sequence (O35433 whole entry): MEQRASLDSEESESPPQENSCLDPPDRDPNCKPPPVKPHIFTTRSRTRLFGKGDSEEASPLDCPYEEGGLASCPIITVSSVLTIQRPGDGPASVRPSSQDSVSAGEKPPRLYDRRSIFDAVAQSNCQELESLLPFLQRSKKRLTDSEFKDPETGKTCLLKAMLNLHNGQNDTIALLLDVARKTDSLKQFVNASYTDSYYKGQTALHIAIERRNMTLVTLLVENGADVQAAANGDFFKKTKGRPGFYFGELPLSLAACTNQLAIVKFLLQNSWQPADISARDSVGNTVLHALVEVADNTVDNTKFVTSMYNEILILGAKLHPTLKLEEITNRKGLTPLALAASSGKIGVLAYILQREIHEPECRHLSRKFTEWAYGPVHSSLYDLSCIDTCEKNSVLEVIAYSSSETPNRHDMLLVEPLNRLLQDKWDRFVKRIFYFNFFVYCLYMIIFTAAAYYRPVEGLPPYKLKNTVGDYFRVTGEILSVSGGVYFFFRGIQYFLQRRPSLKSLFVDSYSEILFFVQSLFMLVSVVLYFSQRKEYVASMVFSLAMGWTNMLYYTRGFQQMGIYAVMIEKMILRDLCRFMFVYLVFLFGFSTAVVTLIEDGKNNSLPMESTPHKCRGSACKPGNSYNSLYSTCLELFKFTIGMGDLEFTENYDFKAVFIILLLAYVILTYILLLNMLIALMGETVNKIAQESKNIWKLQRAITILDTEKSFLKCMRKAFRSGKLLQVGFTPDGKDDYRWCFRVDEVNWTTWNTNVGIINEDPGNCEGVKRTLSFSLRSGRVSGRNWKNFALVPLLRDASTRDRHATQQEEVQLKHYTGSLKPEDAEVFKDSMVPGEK
T2 sequence (Q8NER1 whole entry): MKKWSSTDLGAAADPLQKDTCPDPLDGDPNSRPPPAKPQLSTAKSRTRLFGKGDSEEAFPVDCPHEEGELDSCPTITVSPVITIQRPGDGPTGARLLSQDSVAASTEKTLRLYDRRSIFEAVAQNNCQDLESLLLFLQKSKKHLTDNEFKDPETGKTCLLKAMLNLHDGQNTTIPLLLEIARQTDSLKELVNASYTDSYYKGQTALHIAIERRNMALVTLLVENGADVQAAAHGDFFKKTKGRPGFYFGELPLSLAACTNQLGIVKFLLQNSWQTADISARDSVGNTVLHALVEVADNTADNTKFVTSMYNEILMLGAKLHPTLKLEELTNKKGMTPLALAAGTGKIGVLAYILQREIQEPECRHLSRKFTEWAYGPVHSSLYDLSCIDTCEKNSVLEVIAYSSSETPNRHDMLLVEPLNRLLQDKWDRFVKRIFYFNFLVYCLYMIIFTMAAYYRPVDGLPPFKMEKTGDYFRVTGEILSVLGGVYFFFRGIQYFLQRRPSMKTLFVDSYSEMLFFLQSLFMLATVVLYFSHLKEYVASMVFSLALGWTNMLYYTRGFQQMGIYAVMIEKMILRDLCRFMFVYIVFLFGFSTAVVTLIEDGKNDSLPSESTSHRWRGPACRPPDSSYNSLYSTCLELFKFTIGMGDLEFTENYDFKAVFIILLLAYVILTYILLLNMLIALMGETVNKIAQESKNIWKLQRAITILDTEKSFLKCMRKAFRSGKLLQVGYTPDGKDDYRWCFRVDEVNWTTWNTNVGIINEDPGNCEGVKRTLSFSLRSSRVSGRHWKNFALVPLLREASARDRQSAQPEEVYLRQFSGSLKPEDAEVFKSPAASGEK

`CC(C)(C)C1CCC2(CC1)CC(C(=O)NCc1ccc(N)cc1)=NO2` (centres unmarked) [Example 1, 8-tert-butyl-1-oxa-2-azaspiro[4.5]dec-2-ene-3-carboxylic acid-4-aminobenzylamide]: at VR1 (rat), the inhibition at 10 µM stood at 71.3% and the activation at 10 µM was found to be 44.7%. Further, on VR1 (human), the inhibition at 10 µM turned out to be 23.6% and the activation at 10 µM worked out at 20.7%.

In the case of `CC(C)(C)C1CCC2(CC1)CC(C(=O)NCc1ccc(NS(C)(=O)=O)cc1)=NO2` (stereo not drawn) [Example 2, trans-8-tert-butyl-1-oxa-2-azaspiro[4.5]dec-2-ene-3-carboxylic acid-4-methanesulphonylaminobenzylamide], at VR1 (rat), the “VR1 (rat) (% inhibition compared to 10 μM CP)” value was found to be 100.87% and the “VR1 (rat) (% stimulation compared to 10 μM CP)” value was −15.97%. On VR1 (human), the “VR1 (human) (% inhibition compared to 10 μM CP)” value was determined as 58.09% and the “VR1 (human) (% stimulation compared to 10 μM CP)” value is reported as −0.32%.

`CC(C)(C)C1CCC2(CC1)CC(C(=O)NCc1ccc(NS(C)(=O)=O)cc1)=NO2` (stereo not drawn) [Example 3, cis-8-tert-butyl-1-oxa-2-azaspiro[4.5]dec-2-ene-3-carboxylic acid-4-methanesulphonylaminobenzylamide]: at VR1 (rat), the “VR1 (rat) (% inhibition compared to 10 μM CP)” value amounted to 102.62% and the “VR1 (rat) (% stimulation compared to 10 μM CP)” value worked out at 0.10%. For the same molecule, on VR1 (human), the “VR1 (human) (% inhibition compared to 10 μM CP)” value is given as 80.10% and the “VR1 (human) (% stimulation compared to 10 μM CP)” value is given as −1.29%.

For `CC(C)(C)C1CCC2(CC1)CC(C(=O)Nc1cccc3cnccc13)=NO2` (centres unmarked) [Example 4, 8-tert-butyl-1-oxa-2-azaspiro[4.5]dec-2-ene-3-carboxylic acid isoquinolin-5-ylamide], on VR1 (rat), the inhibition at 10 µM was 73.7% and the activation at 10 µM is -0.54%. Further, at VR1 (human), the inhibition at 10 µM was 76.3% and the activation at 10 µM is -0.33%.

Consider `CC(C)(C)[C@H]1CC[C@]2(CC1)CC(C(=O)N1CCN(c3ncccc3C(F)(F)F)CC1)=NO2` [Example 8, trans-(8-tert-butyl-1-oxa-2-azaspiro[4.5]dec-2-en-3-yl)-[4-(3-trifluoromethylpyridin-2-yl)piperazin-1-yl]methanone], for which, on VR1 (rat), the “VR1 (rat) (% inhibition compared to 10 μM CP)” value was determined as 97.15% and the “VR1 (rat) (% stimulation compared to 10 μM CP)” value turned out to be 0.57%. On VR1 (human), the “VR1 (human) (% inhibition compared to 10 μM CP)” value is reported as 20.73% and the “VR1 (human) (% stimulation compared to 10 μM CP)” value came out at 0.22%.

As for `CC(C)(C)[C@H]1CC[C@]2(CC1)CC(C(=O)N1CCN(c3ccc(O)cc3)CC1)=NO2` [Example 10, trans-(8-tert-butyl-1-oxa-2-azaspiro[4.5]dec-2-en-3-yl)-[4-(4-hydroxyphenyl)piperazin-1-yl]methanone], on VR1 (rat), the “VR1 (rat) (% inhibition compared to 10 μM CP)” value was 22.95% and the “VR1 (rat) (% stimulation compared to 10 μM CP)” value came to 8.77%. At VR1 (human), the “VR1 (human) (% inhibition compared to 10 μM CP)” value came out at 17.54% and the “VR1 (human) (% stimulation compared to 10 μM CP)” value was 2.84%.

`CC(C)(C)[C@H]1CC[C@@]2(CC1)CC(C(=O)N1CCN(c3ccc(O)cc3)CC1)=NO2` [Example 11, cis-(8-tert-butyl-1-oxa-2-azaspiro[4.5]dec-2-en-3-yl)-[4-(4-hydroxyphenyl)piperazin-1-yl]methanone]: on VR1 (rat), the “VR1 (rat) (% inhibition compared to 10 μM CP)” value is 62.42% and the “VR1 (rat) (% stimulation compared to 10 μM CP)” value was −0.37%. Also, on VR1 (human), the “VR1 (human) (% inhibition compared to 10 μM CP)” value came to 28.56% and the “VR1 (human) (% stimulation compared to 10 μM CP)” value is −0.05%.

Consider `CC(C)(C)C1CCC2(CC1)CC(C(=O)N1CCc3cc(O)c(O)cc3C1)=NO2` (centres unmarked) [Example 12, (8-tert-butyl-1-oxa-2-azaspiro[4.5]dec-2-en-3-yl)-(6,7-dihydroxy-3,4-dihydro-1H-isoquinolin-2-yl)methanone], for which, on VR1 (rat), the inhibition at 10 µM stood at 94.3% and the activation at 10 µM was determined as 112%. Moreover, at VR1 (human), the inhibition at 10 µM was determined as 79.9% and the activation at 10 µM was found to be 101%.

In the case of `CC(C)(C)[C@H]1CC[C@@]2(CC1)CC(C(=O)N1CCN(c3nsnc3Cl)CC1)=NO2` [Example 17, cis-(8-tert-butyl-1-oxa-2-azaspiro[4.5]dec-2-en-3-yl)-[4-(4-chloro-[1,2,5]thiadiazol-3-yl)piperazin-1-yl]methanone], on VR1 (rat), the “VR1 (rat) (% inhibition compared to 10 μM CP)” value is 58.92% and the “VR1 (rat) (% stimulation compared to 10 μM CP)” value is recorded as 0.33%. Also, at VR1 (human), the “VR1 (human) (% inhibition compared to 10 μM CP)” value is recorded as 14.95% and the “VR1 (human) (% stimulation compared to 10 μM CP)” value is −0.05%.

`COc1cc2c(cc1OC)CN(C(=O)C1=NO[C@]3(CC[C@H](C(C)(C)C)CC3)C1)CC2` [Example 18, trans-(8-tert-butyl-1-oxa-2-azaspiro[4.5]dec-2-en-3-yl)-(6,7-dimethoxy-3,4-dihydro-1H-isoquinolin-2-yl)methanone]: at VR1 (rat), the “VR1 (rat) (% inhibition compared to 10 μM CP)” value is listed as 97.62% and the “VR1 (rat) (% stimulation compared to 10 μM CP)” value is on record as 84.04%. At VR1 (human), the “VR1 (human) (% inhibition compared to 10 μM CP)” value was found to be 22.05% and the “VR1 (human) (% stimulation compared to 10 μM CP)” value was found to be 24.24%.

As to `COc1cc2c(cc1OC)CN(C(=O)C1=NO[C@]3(CC[C@@H](C(C)(C)C)CC3)C1)CC2` [Example 19, cis-(8-tert-butyl-1-oxa-2-azaspiro[4.5]dec-2-en-3-yl)-(6,7-dimethoxy-3,4-dihydro-1H-isoquinolin-2-yl)methanone], at VR1 (rat), the “VR1 (rat) (% inhibition compared to 10 μM CP)” value turned out to be 95.49% and the “VR1 (rat) (% stimulation compared to 10 μM CP)” value is reported as 70.81%. On VR1 (human), the “VR1 (human) (% inhibition compared to 10 μM CP)” value was 22.55% and the “VR1 (human) (% stimulation compared to 10 μM CP)” value worked out at 13.41%.
